Article PMC12254266, “Multicolored sequential resonance energy transfer for detection of simultaneous ligand binding at G protein-coupled receptors” (Nature Communications, 2025)
Several values for one entry are separate records, joined by “and”; a condition that tells them apart may be missing. Identical values can stand only once. Like-named read-outs stand apart in the source and are kept apart here.

Assays:
FFA1-Nluc = FFA1-Nluc (Homo sapiens, UniProt O14842); experiment: NanoBRET binding (saturation, kinetics) at C terminal Nluc tagged FFA1; set-up: expressed in transfected cells
Protocol: Nluc-FFA1 or FFA1-Nluc Flp-In T-REx 293 cells were plated at 50,000 cells per well in poly-D-lysine coated white 96-well plates. Cells were cultured for 24 h in the plate before medium was replaced with medium containing 100 ng/mL of doxycycline to induce receptor expression. After culturing for a further 24 h, medium was removed, cells were washed with HBSS and incubated in HBSS for 30 min. To start the assay, NanoGlo substrate (Promega, N1110) was added to the cells at a 1:800 final dilution and incubated for 10 min at 37 °C. For endpoint assays, including both saturation and competition binding, test ligands were then added, including both fluorescent and unlabelled competing ligands as indicated, and plates incubated for a further 5 min at 37 °C. NanoBRET was then quantified in a CLARIOstar microplate reader (BMG Labtech) by measuring luminescent emission with the monochrometer set for the Nluc donor at 450–60 nm, and acceptor luminescent emission 540–60 nm (NBD), 600–80 nm (Cy3.5) or 690–100 nm (SulfoCy5), depending on which fluorophore was being tested. The acceptor/donor BRET ratio was then taken as a measure of fluorophore binding. For kinetic on then off NanoBRET experiments plates were washed the same way and substrate was added to the same concentration. However, 10 min after substrate was added plates were inserted into the CLARIOstar microplate reader set to 25 °C to take repeated measurements of luminescent emission for both the donor and the acceptor fluorophore being used. After 5 min of background measurements, the indicated concentration of fluorescent ligand was added using the plate reader injector and luminescent emission was monitored for ~10 min before the reader was paused to manually add a high concentration of appropriate competing ligand to initiate dissociation. The plate was returned to the reader and luminescence measurements were continued for a further 30 min to monitor dissociation of the fluorescent ligand. For kinetic experiments using multiple concentrations of fluorescent ligand, cells were placed in the plate reader immediately after the addition of Nano-Glo substrate and luminescent measurements were taken. After 5 min, the reader was paused to add the indicated concentrations of fluorescent ligand, before measurements were continued. To set non-specific binding for kinetic experiments, the indicated competing ligand was added 5 min before the addition of the fluorescent ligand.

FFA1 = FFA1 (Homo sapiens, UniProt O14842); experiment: Ca2+ mobilisation (Fura2) in Flp-In T-REx 293 cells expressing Nluc-FFA1, FFA1-Nluc or untagged FFA1; assay type: cell-based; set-up: expressed in transfected cells; conditions: for pEC50: Ca2+ data, mean±SEM; for pEC50 / EMax: NR = No response; for EMax: percentage of response to 10 μM T360
How it was run: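 520 nm emission read at 340 and 380 nm excitation over 90 s spanning compound addition. Response taken as peak 340/380 ratio after subtracting pre-addition ratios.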

Aqueous solubility = assay type: physicochemical; conditions: in words, relative to previous analogues
Nluc-FFA1 = biological target: T1, Nluc-FFA1 (Homo sapiens, UniProt O14842); experiment: NanoBRET binding (saturation, competition, kinetics) at N terminal Nluc tagged FFA1; conditions: for kOff Nano-BRET: TUG-2591 100 nM then TUG-905 10 μM, or TUG-2597 […] then T360 10 μM; for kOff Nano-BRET Multiple Concentration / kOn Nano-BRET Multiple Concentration: multiple concentration of labelled ligand association model; for kOff Nano-BRET Allosterism, Nluc-FFA1: TUG-2591 (1 μM) in the presence of T360 (30μM), TUG-2597 (1 μM) in the presence of TUG-905 (30μM), 95% CI in parentheses
T1 construct: expressed in transfected cells

[1] = FFA1-Nluc, 95% confidence interval in parentheses, read-out: Kd, saturation BRET binding
[2] = FFA1-Nluc cells, log[ligand] -6.5, technical replicates
[3] = Nluc-FFA1 cells, log[ligand] -6.5, technical replicates
[4] = log[Ligand] -5, single technical replicates
[5] = log[Ligand] -5.5, single technical replicates
[6] = log[Ligand] -6, single technical replicates
[7] = log[Ligand] -6.5, single technical replicates
[8] = log[Ligand] -7, single technical replicates
[9] = log[Ligand] -8, single technical replicates
[10] = log[Ligand] -9, single technical replicates
[11] = Nluc-FFA1, 95% confidence interval in parentheses, read-out: Kd, saturation BRET binding
[12] = Nluc-FFA1, association then dissociation model
[13] = Nluc-FFA1, association then dissociation model, read-out: Kd Nano-BRET (kinetic)
[14] = Nluc-FFA1, read-out: Kd Nano-BRET Multiple Concentration (kinetic)
[15] = footnotes of Supplementary Table 3, read-out: Kd values obtained in NanoBRET saturation experiments (used for pKi) (converted)

Chain of FFA1-Nluc (O14842 whole entry): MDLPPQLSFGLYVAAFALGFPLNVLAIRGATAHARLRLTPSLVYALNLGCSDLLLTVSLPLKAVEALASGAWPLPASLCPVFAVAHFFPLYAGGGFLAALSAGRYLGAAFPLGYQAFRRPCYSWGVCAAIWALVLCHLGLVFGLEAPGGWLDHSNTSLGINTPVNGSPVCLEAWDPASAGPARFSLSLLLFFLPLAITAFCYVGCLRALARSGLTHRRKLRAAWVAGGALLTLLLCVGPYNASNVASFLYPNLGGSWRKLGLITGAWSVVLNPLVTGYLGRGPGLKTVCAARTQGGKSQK
T1 sequence (O14842 whole entry): as above
Chain of FFA1 (O14842 whole entry): as above

Structure (SMILES)	Kd (FFA1-Nluc; [1])	pEC50 (FFA1)	Ca2+ Response as a % of T360 Response (FFA1; [2])	Ca2+ Response as a % of T360 Response (FFA1; [3])	Ca2+ Response as a % of T360 Response (FFA1; [4])	Ca2+ Response as a % of T360 Response (FFA1; [5])	Ca2+ Response as a % of T360 Response (FFA1; [6])	Ca2+ Response as a % of T360 Response (FFA1; [7])	Ca2+ Response as a % of T360 Response (FFA1; [8])	Ca2+ Response as a % of T360 Response (FFA1; [9])	Ca2+ Response as a % of T360 Response (FFA1; [10])	EMax (FFA1)	Kd (Nluc-FFA1; [11])	kOn Nano-BRET (Nluc-FFA1; [12])	kOff Nano-BRET (Nluc-FFA1; [12])	Kd (Nluc-FFA1; [13])	kOff Nano-BRET Multiple Concentration (Nluc-FFA1; Nluc-FFA1)	kOn Nano-BRET Multiple Concentration (Nluc-FFA1; Nluc-FFA1)	Kd (Nluc-FFA1; [14])	kOff Nano-BRET Allosterism, Nluc-FFA1 (Nluc-FFA1)	other results
COc1ccc(C(=O)N(CC(C)(C)CNc2ccc([N+](=O)[O-])c3nonc23)c2cccc(C)n2)c(N2CCC(COc3cccc(C(CC(=O)O)C4CC4)c3)CC2)c1.O=C(O)C(F)(F)F (stereo not shown) [TUG-2597]	380 nM	7.27±0.15	93.856%	75.000% and 74.673% and 79.991% and 79.440% and 88.972% and 77.424%	94.1089% and 100.3658% and 94.0694% and 95.2773% and 93.4218% and 94.0281% and 113.6201% and 103.7535% and 91.4802%	88.4228% and 88.1164% and 92.8756% and 94.9449% and 95.8176% and 102.8518% and 111.3779% and 100.7045% and 94.6978%	102.9594% and 94.0443% and 86.0972% and 89.8623% and 94.5572% and 93.9027% and 112.3722% and 96.0847% and 99.4485%	98.0209% and 82.7239% and 91.3275% and 93.3935% and 84.3453% and 87.8268% and 93.2804% and 88.9497% and 93.8558%	78.0026% and 75.4199% and 62.2477% and 75.7232% and 79.9853% and 65.5987% and 54.9740% and 35.8972% and 43.3457%	14.2762% and 15.7577% and 11.8329% and 8.5966% and 24.0260% and 6.3496% and -0.7745% and -0.6973% and 0.6419%	2.8056% and 3.1175% and 1.8245% and 0.4833% and 3.2822% and 3.2529% and 0.4143% and 0.1324% and 3.0301%	101±4%	390 nM	58333.33 M⁻¹ s⁻¹	0.00633 s⁻¹	110 nM	0.0065 s⁻¹	12000 M⁻¹ s⁻¹	540 nM	0.20 (0.195-0.203) min-1	Specific BRET (FFA1-Nluc; FFA1-Nluc (Fig 1E), percentage of the maximal signal, [TUG-2597] 550 nM): 49.872% and 58.619% and 50.406% and 58.181% and 46.189%; Specific BRET (540/450) Ratio (FFA1-Nluc; FFA1-Nluc, [TUG-2597] 550 nM): 0.0328 and 0.0282; kOff Nano-BRET Allosterism, FFA1-Nluc (FFA1-Nluc; TUG-2597 (1 μM) in the presence of TUG-905 (30μM), 95% CI in parentheses): 0.24 (0.23-0.25) min-1; kOff Nano-BRET Single Concentration (FFA1-Nluc; based on the value calculated in Supplementary Table 4): 0.00633 s⁻¹; kOn Nano-BRET Single Concentration (FFA1-Nluc; no pre-treatment, NBD/Nluc (Sup. Fig. 10A)): 23333.33 M⁻¹ s⁻¹; Kd (FFA1-Nluc; no pre-treatment, read-out: Kd Nano-BRET Single Concentration (kinetic)): 270 nM; Ca2+ Response as a % of T360 Response (FFA1; FFA1-Nluc cells, log[ligand] -6, technical replicates): 99.449% and 102.959% and 94.044% and 86.097% and 89.862% and 94.557% and 93.903% and 112.372% and 96.085%; Ca2+ Response as a % of T360 Response (FFA1; Nluc-FFA1 cells, log[ligand] -6, technical replicates): 98.502% and 90.832% and 83.286% and 100.456% and 100.532% and 98.348% and 86.132% and 101.429% and 99.802%; activity in Ca2+ assays (FFA1; in words): full agonist activity; Ca2+ Response as a % of T360 Response (FFA1; untagged FFA1 cells, log[ligand] -6, technical replicates): 93.834% and 82.677% and 85.015% and 110.264% and 98.194% and 98.400% and 82.235% and 72.424% and 63.906% and 83.124% and 92.268% and 73.931%; aqueous solubility (Aqueous solubility): improved aqueous solubility; Specific BRET (Nluc-FFA1; Nluc-FFA1 (Fig 1F), percentage of the maximal signal, [TUG-2597] 550 nM): 73.921% and 62.249% and 55.324% and 54.737% and 83.741% and 100.190%; Specific BRET (540/450) Ratio (Nluc-FFA1; Nluc-FFA1, [TUG-2597] 100 nM): 0.0112 and 0.0100 and 0.0162 and 0.0091 and 0.0128 and 0.0161; Specific BRET (540/450) Ratio (Nluc-FFA1; Nluc-FFA1, [TUG-2597] 550 nM): 0.0530 and 0.0471 and 0.0466; Specific BRET (540/450) Ratio (Nluc-FFA1; Nluc-FFA1, [TUG-2597] 1000 nM): 0.0547 and 0.0609 and 0.0560 and 0.0683 and 0.0664 and 0.0577; Kd (Nluc-FFA1; [15]): 380 nM; Kd (Nluc-FFA1; using either Nluc location (N or C terminal), read-out: Kd, saturation NanoBRET): 350 to 440 nM
Cc1cc(OCCCNC(=O)CCCN2\C(=C/C=C/C=C/C3=[N+](C)c4ccc(S(=O)(=O)[O-])cc4C3(C)C)C(C)(C)c3ccccc32)ccc1-c1cccc(COc2ccc(CCC(=O)O)c(F)c2)c1 [TUG-2591]	23 nM	6.47±0.16	55.49% and 52.86% and 28.95% and 51.39% and 72.16% and 71.58% and 70.75% and 43.70% and 49.38%	34.81% and 37.98% and 35.96% and 31.33% and 37.74% and 35.87% and 21.49% and 18.21% and 19.57%	61.66% and 51.52% and 46.84% and 86.56% and 82.15% and 71.83% and 71.15% and 53.72%	62.71% and 47.16% and 58.62% and 85.53% and 80.90% and 77.51% and 55.09% and 51.22%	62.82% and 60.50% and 58.53% and 87.03% and 71.98% and 71.50% and 53.51% and 60.26% and 56.70%	34.81% and 37.98% and 35.96% and 31.33% and 37.74% and 35.87% and 21.49% and 18.21% and 19.57%	17.82% and 28.31% and 29.67% and 8.27% and 1.38% and 7.74% and -0.10% and 0.12% and -1.53%	10.54% and 11.17% and 19.68% and 8.20% and 7.07% and 9.22% and 0.11% and 1.85% and 0.30%	1.04% and 5.22% and 4.78% and 4.50% and 4.79% and 3.13% and 2.97% and -0.0331% and -1.56%	73±9%	210 nM	26666.67 M⁻¹ s⁻¹	0.00683 s⁻¹	250 nM	0.0207 s⁻¹	125000 M⁻¹ s⁻¹	170 nM	0.034 (0.032-0.035) min-1	BMax, saturation BRET binding (FFA1-Nluc; FFA1-Nluc, specific BRET, 95% confidence interval in parentheses): 0.035 (0.032−0.038); Ca2+ Response as a % of T360 Response (FFA1; FFA1-Nluc cells, log[ligand] -7, technical replicates): 8.16%; Ca2+ Response as a % of T360 Response (FFA1; Nluc-FFA1 cells, log[ligand] -7, technical replicates): 17.82% and 28.31% and 29.67% and 8.27% and 1.38% and 7.74% and -0.10% and 0.12%; Ca2+ Response as a % of T360 Response (FFA1; untagged FFA1 cells, log[ligand] -6.5, technical replicates): 69.40% and 67.64% and 73.36% and 82.87% and 85.96% and 73.97% and 51.16% and 43.14% and 56.15% and 83.71% and 86.53% and 111.93%; BMax, saturation BRET binding (Nluc-FFA1; Nluc-FFA1, specific BRET, 95% confidence interval in parentheses): 0.31 (0.27-0.37); Kd (Nluc-FFA1; [15]): 200 nM; off-rate, times faster in single ligand NanoBRET compared with dual ligand DISCo-BRET (Nluc-FFA1; ratio of off-rates): ~ 10
